{"source": "paper PMC10833137", "about": "“Characterization of a novel 4-guanidinobutyrase from Candida parapsilosis” (FEMS Yeast Research, 2024)", "key": {"[1]": {"molecular_target": "T1, AnGBase (A. niger GBase) (Aspergillus niger, UniProt W8R465)", "T1 sequence (W8R465 21-422 limits assumed)": "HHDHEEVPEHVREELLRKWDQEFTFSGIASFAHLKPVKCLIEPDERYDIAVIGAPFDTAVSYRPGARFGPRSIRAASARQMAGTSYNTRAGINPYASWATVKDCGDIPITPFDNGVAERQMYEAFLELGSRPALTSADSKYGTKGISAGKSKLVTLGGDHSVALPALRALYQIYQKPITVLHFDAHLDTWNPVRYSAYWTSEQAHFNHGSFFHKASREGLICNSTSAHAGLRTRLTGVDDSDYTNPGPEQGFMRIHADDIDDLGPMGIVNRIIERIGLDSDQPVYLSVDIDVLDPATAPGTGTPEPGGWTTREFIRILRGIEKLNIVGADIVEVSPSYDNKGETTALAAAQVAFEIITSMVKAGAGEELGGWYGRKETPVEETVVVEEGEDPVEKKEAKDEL", "test": "product inhibition, Cheng-Prusoff", "assay_type": "biochemical", "description": "product inhibition, Cheng-Prusoff on AnGBase (A. niger GBase)"}, "[2]": {"molecular_target": "T2, CpGBase (C. parapsilosis 4-guanidinobutyrase; CparGBase) (Lodderomyces parapsilosis, UniProt G8B5B7)", "T2 construct": "gene CPAR2_602270", "T2 sequence (G8B5B7 16-367 limits assumed)": "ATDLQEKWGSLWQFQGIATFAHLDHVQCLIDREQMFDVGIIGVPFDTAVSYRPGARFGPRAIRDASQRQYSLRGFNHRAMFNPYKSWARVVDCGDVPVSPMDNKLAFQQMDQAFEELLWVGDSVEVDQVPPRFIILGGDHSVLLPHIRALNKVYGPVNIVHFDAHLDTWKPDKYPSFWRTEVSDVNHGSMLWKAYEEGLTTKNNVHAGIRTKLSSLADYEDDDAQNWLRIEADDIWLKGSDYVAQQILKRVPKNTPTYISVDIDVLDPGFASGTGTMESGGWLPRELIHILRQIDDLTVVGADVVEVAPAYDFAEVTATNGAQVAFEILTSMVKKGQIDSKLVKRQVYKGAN", "test": "modified Archibald urea assay, product inhibition, Cheng-Prusoff", "assay_type": "biochemical", "description": "modified Archibald urea assay, product inhibition, Cheng-Prusoff on CpGBase (C. parapsilosis 4-guanidinobutyrase; CparGBase)"}, "[3]": {"substrate": "N=C(N)NCCCC(=O)O", "test": "purified protein", "assay_type": "biochemical, Lodderomyces parapsilosis", "details": "20 mM phosphate buffer, 37 °C, 20 min, enriched enzyme"}, "[4]": {"substrate": "N=C(N)NCCC(=O)O", "test": "purified protein", "assay_type": "biochemical, Lodderomyces parapsilosis", "details": "20 mM phosphate buffer, 37 °C, 20 min, enriched enzyme"}}, "note": "Like-named read-outs stand apart in the source and are kept apart here."}
{"molecule": "NCCCC(=O)O", "note": "[GABA]", "values": [{"measurement": "Ki", "setting": "[1]; read-out: KI / GABA", "value": "4.1 ± 1.1", "unit": "mM"}, {"measurement": "Ki", "setting": "[2]; read-out: KI / GABA", "value": "3.1 ± 0.5", "unit": "mM"}]}
{"molecule": "NCCC(=O)O", "note": "[β-alanine]", "values": [{"measurement": "Ki", "setting": "[1]; read-out: KI / β-alanine", "value": "48.7 ± 0.8", "unit": "mM"}, {"measurement": "Ki", "setting": "[2]; read-out: KI / β-alanine", "value": "7.8 ± 1.2", "unit": "mM"}]}
{"molecule": "CpGBase (C. parapsilosis 4-guanidinobutyrase; CparGBase) (Lodderomyces parapsilosis CDC317) (protein) ATDLQEKWGSLWQFQGIATFAHLDHVQCLIDREQMFDVGIIGVPFDTAVSYRPGARFGPRAIRDASQRQYSLRGFNHRAMFNPYKSWARVVDCGDVPVSPMDNKLAFQQMDQAFEELLWVGDSVEVDQVPPRFIILGGDHSVLLPHIRALNKVYGPVNIVHFDAHLDTWKPDKYPSFWRTEVSDVNHGSMLWKAYEEGLTTKNNVHAGIRTKLSSLADYEDDDAQNWLRIEADDIWLKGSDYVAQQILKRVPKNTPTYISVDIDVLDPGFASGTGTMESGGWLPRELIHILRQIDDLTVVGADVVEVAPAYDFAEVTATNGAQVAFEILTSMVKKGQIDSKLVKRQVYKGAN", "values": [{"measurement": "Km", "setting": "[3]", "value": "4.6 ± 0.5", "unit": "mM"}, {"measurement": "Km", "setting": "[4]", "value": "9.6 ± 0.4", "unit": "mM"}]}
